According to paper PMC12682947, “Identification of New KCNT1‐Epilepsy Drugs by In Silico, Cell, and Drosophila Modeling” (Annals of Neurology, 2025):
Like-named read-outs stand apart in the source and are kept apart here.

Test: Plasma pharmacokinetics and brain uptake of antrafenine in mice (LC-MS)
Assay type: in vivo, male C57BL/6 mice
Conditions: male, C57BL/6, mouse; for AUC(0-inf): read-out: Plasma AUC0-inf; for clearance: read-out: Plasma CL; for Vd: read-out: Plasma VSS
Method: Plasma pharmacokinetics and brain uptake of antrafenine was analyzed in male C57BL/6 mice. Antrafenine was administered intravenously at 1 mg/kg and 3 mg/kg into the tail vein and plasma was collected over a 24‐hour sampling period (n = 3 mice/time point). Following administration, the brain was harvested at 4 times over 24 hours and snap frozen in dry ice and subsequently stored frozen (−80°C) until analysis. The concentration of antrafenine was determined using liquid chromatography–mass spectrometry. The in vivo study was conducted using established procedures in accordance with the Australian Code of Practice for the Care and Use of Animals for Scientific Purposes, and the study protocols were reviewed and approved by the Monash Institute of Pharmaceutical Sciences Animal Ethics Committee. See Supporting Information for detailed methods and results. […]
Plasma pharmacokinetics and brain uptake of antrafenine was analyzed in male C57BL/6 mice by the Monash University Centre for Drug Candidate Optimisation. Antrafenine was administered intravenously at 1 mg/kg and 3 mg/kg into the tail vein and plasma was collected over a 24 h sampling period (n=3 mice/time point). Following administration, brain was harvested at four times over 24 hours and snap frozen in dry ice and subsequently stored frozen (-80°C) until analysis. The concentration of antrafenine was determined using liquid chromatography–mass spectrometry (LC-MS).
4 hrs post IV administration of 3 mg/kg Antrafenine was taken as a representative time to compare plasma and brain concentrations. At 4 hrs we determined a mean plasma concentration of 47.5 nM (+5.9 nM SD) and a mean brain concentration of 13.9 nM (+3 nM SD). […]
Plasma pharmacokinetics and brain uptake of antrafenine
The systemic exposure of antrafenine was studied in non-fasted male C57BL/6 mice weighing 19.8 – 24.6 g. Mice had access to food and water ad libitum throughout the pre- and post-dose period. Antrafenine hydrochloride Mw 588.554 (Lot#10-KSS-51-2) was obtained from Toronto Research Chemicals/LGC Standards, Canada, and was dissolved in vehicle; 5% (v/v) DMSO, 25% (v/v) 40% (w/v) Trappsol in 0.9% (w/v) saline, 70% (v/v) 40 mM citrate buffered saline at pH 3.5 at concentrations of 0.5 mg/mL and 1.5 mg/mL.
On the day of dosing, each formulation was prepared by dissolving solid antrafenine in DMSO using vortexing and sonication prior to addition of 40% (w/v) Trappsol in 0.9% (w/v) saline followed by 40 mM citrate-buffered saline at pH 3.5. Each sample was vortexed to create a colorless / light yellow solution and was filtered through a 0.22 µm syringe filter prior to dosing.
Administration of antrafenine was performed by a single bolus IV injection into the tail vein of C57BL/6 male mice using a 1ml syringe with a 25G x 1” needle at a volume of 2 mL/kg. Each […]
formulation was dosed to mice by bolus injection into the lateral tail vein (2 mL/kg) and blood samples were collected at 1, 2, 5, 15 and 30 min; 1, 2, 4, 7.5 and 24 h post-dose (n=3 mice per time point for each formulation). A maximum of three blood samples were obtained from each mouse, with plasma samples being taken via submandibular bleed (approximately 120 μL).
Blood was collected into polypropylene Eppendorf tubes containing heparin as anticoagulant and stabilization cocktail (Complete® (containing a protease inhibitor cocktail and EDTA) and potassium fluoride) to minimize the potential for ex vivo compound degradation in blood/plasma samples. Once collected, blood samples were centrifuged immediately, supernatant plasma was removed, snap frozen in dry ice and stored at -80°C until analysis by LC-MS. In addition, at the 15 min, 1, 4 and 24 h post-dose time points, the whole brain was rapidly removed from the carcass soon after the blood collection. The whole brains were blotted to remove excess blood, placed into pre-weighed polypropylene vials and weighed. The brains were snap frozen in dry […]

[1] = plasma, iv, 1 mg/kg, IV 1 mg/kg, individual mice, read-out: Plasma Concentration Individual
[2] = plasma, iv, 1 mg/kg, IV 1 mg/kg, n = 3, read-out: Plasma Concentration Mean ± SD
[3] = plasma, iv, 3 mg/kg, IV 3 mg/kg, individual mice, read-out: Plasma Concentration Individual
[4] = plasma, iv, 3 mg/kg, IV 3 mg/kg, n = 3, read-out: Plasma Concentration Mean ± SD
[5] = plasma, IV administration at 1mg/kg
[6] = plasma, IV administration at 3mg/kg

O=C(OCCN1CCN(c2cccc(C(F)(F)F)c2)CC1)c1ccccc1Nc1ccnc2cc(C(F)(F)F)ccc12 [antrafenine]
concentration at 0.25 h (brain, iv, 3 mg/kg, IV 3 mg/kg, 0.25 h, individual mice, read-out: Brain Parenchyma Concentration Individual): 31.1 nM
Kp at 0.25 h (brain, iv, 3 mg/kg, IV 3 mg/kg, 0.25 h, n = 3, read-out: B:P ratio Mean ± SD): 0.042
concentration at 0.25 h (brain, iv, 3 mg/kg, IV 3 mg/kg, 0.25 h, n = 3, read-out: Brain Parenchyma Concentration Mean ± SD): 29.5 nM
Kp at 1 h (brain, iv, 3 mg/kg, IV 3 mg/kg, individual mice, read-out: B:P ratio Individual): 0.14
Kp at 1 h (brain, iv, 3 mg/kg, IV 3 mg/kg, n = 3, read-out: B:P ratio Mean ± SD): 0.11
concentration at 1 h (brain, iv, 3 mg/kg, IV 3 mg/kg, n = 3, read-out: Brain Parenchyma Concentration Mean ± SD): 31.4 nM
Kp at 4 h (brain, iv, 3 mg/kg, IV 3 mg/kg, 4 h, individual mice, read-out: B:P ratio Individual): 0.32
Kp at 4 h (brain, iv, 3 mg/kg, IV 3 mg/kg, 4 h, n = 3, read-out: B:P ratio Mean ± SD): 0.29
Kp at 4 h (brain, iv, 3 mg/kg, IV 3 mg/kg, 4 hours after administration, read-out: concentration in the brain as percentage of that present in plasma): ~0.3
concentration at 4 h (brain, iv, 3 mg/kg, IV 3 mg/kg, 4 hours after administration, read-out: mean brain concentration): 13.9 nM
concentration at 0.25 h (plasma, iv, 1 mg/kg, IV 1 mg/kg, 0.25 h, individual mice, read-out: Plasma Concentration Individual): 313 nM
concentration at 0.25 h (plasma, iv, 1 mg/kg, IV 1 mg/kg, 0.25 h, n = 3, read-out: Plasma Concentration Mean ± SD): 297 nM
concentration at 1 h [1]: 122 nM
concentration at 1 h [2]: 113 nM
concentration at 4 h (plasma, iv, 1 mg/kg, IV 1 mg/kg, 4 h, individual mice, read-out: Plasma Concentration Individual): 12.5 nM
concentration at 4 h (plasma, iv, 1 mg/kg, IV 1 mg/kg, 4 h, n = 3, read-out: Plasma Concentration Mean ± SD): 13.1 nM
concentration at 24 h [1]: 2 nM
concentration at 24 h [2]: 1.8 nM
half-life (plasma, iv, 1 mg/kg, plasma, IV administration at 1mg/kg, read-out: Apparent t1/2 (converted)): 7.3 h
concentration at 0.25 h (plasma, iv, 3 mg/kg, IV 3 mg/kg, 0.25 h, individual mice, read-out: Plasma Concentration Individual): 738 nM
concentration at 0.25 h (plasma, iv, 3 mg/kg, IV 3 mg/kg, 0.25 h, n = 3, read-out: Plasma Concentration Mean ± SD): 697 nM
concentration at 1 h [3]: 282 nM
concentration at 1 h [4]: 280 nM
concentration at 4 h (plasma, iv, 3 mg/kg, IV 3 mg/kg, 4 h, individual mice, read-out: Plasma Concentration Individual): 53 nM
concentration at 4 h (plasma, iv, 3 mg/kg, IV 3 mg/kg, 4 h, n = 3, read-out: Plasma Concentration Mean ± SD): 47.5 nM
concentration at 4 h (plasma, iv, 3 mg/kg, IV 3 mg/kg, 4 hours after administration, read-out: mean plasma concentration): 47.5 nM
concentration at 24 h [3]: 5.7 nM
concentration at 24 h [4]: 6.5 nM
half-life (plasma, iv, 3 mg/kg, plasma, IV administration at 3mg/kg, read-out: Apparent t1/2 (converted)): 7.4 h
half-life (plasma, iv, 3 mg/kg, plasma, IV at 1 and 3 mg/kg, each profile, read-out: apparent terminal half-life (converted)): ~7 h
AUC(0-inf) [5]: 1.29 µM·h
clearance [5]: 22 mL/min/kg
Vd [5]: 2.3 L/kg
AUC(0-inf) [6]: 3.14 µM·h
clearance [6]: 27.1 mL/min/kg
Vd [6]: 3.9 L/kg
